# According to PMC9456400 (International Journal of Molecular Sciences, 2022):
# How the values were obtained:
# Huh-7 cells [1] = assay: UHPLC-ESI-QTOF-MS/MS lipidomics; type: cell-based, human; details: Huh-7 cells; SBN 100 µmol/L, lorlatinib 1 µmol/L; median
# Text: We then questioned whether lorlatinib used at concentrations efficacious against ALK-rearranged lung cancer cells but non-toxic to ALK-negative cells could promote substantial lipidome changes in Huh-7 cells (Figure 1B; Table 1). Accordingly, […], and the lipidome was characterized in a semi-targeted approach using a UHPLC-ESI-QTOF-MS/MS method, in which we matched mass spectra with commercial standards (SPLAH mix), databases such as METLIN-PCDL and Lipid MAPS (accessed on 1 July 2022), as well as corroboration of tentative lipid species upon obtaining their MS/MS spectrum. Representative chromatograms of lipidomic analyses in Huh-7 cells can be found in Figure S1.
# Lipid extraction, preparation of external calibration curves, and quality control approaches were carried out as described. Samples (2 μL) were injected directly into a 1290 Infinity UHPLC system coupled with a dual Agilent jet stream ESI source to a 6550 QTOF-MS instrument (Agilent Technologies, Santa Clara, CA, USA). UHPLC-ESI-QTOF-MS conditions, data analysis and indirect quantification of selected lipid species using MassHunter Qualitative Analysis B.07.00 software (Agilent Technologies), and corroboration of the tentative characterization of compound match entities using the Lipid Maps database (www.lipidmaps.org, accessed on 1 July 2022) and targeted MS/MS acquisition on LC-QTOF-MS instrument, have been previously described in detail.
# Differentially expressed lipid species from untargeted lipidomic data were analyzed by generating volcano plots indicating statistical significance versus magnitude of fold-change for each lipid species (cutoff of Benjamini–Hochberg corrected p-value < 0.05 and log2 fold-change > 1 or […]).
# [2] = tested on: H2228 NSCLC cell line (ALK rearrangement variant 3a/b); assay: MTT cell viability assay; details: read-out: IC50 (cell viability)
# Method: (§1) Cell viability effects of lorlatinib were determined using the colorimetric MTT (3-4,5-dimethylthiazol-2-yl-2,5-diphenyl-tetrazolium bromide) reduction assay. Dose–response curves to graded concentrations of lorlatinib were plotted as a percentage of the control cell absorbance, which was obtained from control cells containing the vehicle (DMSO v/v) processed simultaneously. For each treatment, cell viability was evaluated using the following equation: (OD570 of the treated sample/OD570 of the untreated sample) × 100.
# [3] = tested on: H3122 NSCLC cell line (ALK rearrangement variant 1); assay: MTT cell viability assay; details: read-out: IC50 (cell viability)
# Method: as §1
# Huh-7 cells [4] = assay: MTT cell viability assay; type: cell-based; details: Homo sapiens; Huh-7, MTT
# Method: as §1
# [5] = tested on: ALK-negative A549 NSCLC cells; assay: MTT cell viability assay; details: read-out: IC50 (cell viability)
# Method: as §1
structure (smiles),measurement,setting,value
"C[C@H]1Oc2cc(cnc2N)-c2c(nn(C)c2C#N)CN(C)C(=O)c2ccc(F)cc21 [lorlatinib, (10R)-7-amino-12-fluoro-2,10,16-trimethyl-15-oxo-10,15,16,17-tetrahydro-2H-8,4-(metheno)pyrazolo [4,3-h][2,5,11]-benzoxadiazacyclotetradecine-3-carbonitrile]",Relative concentration of PC 38:5e,Huh-7 cells [1],0.193 µmol/mg protein
same,Relative concentration of PC 38:6,Huh-7 cells [1],9.312 µmol/mg protein
same,Relative concentration of PC 38:6e,Huh-7 cells [1],0.353 µmol/mg protein
same,Relative concentration of PC 40:4,Huh-7 cells [1],0.298 µmol/mg protein
same,Relative concentration of PC 40:4e,Huh-7 cells [1],0.087 µmol/mg protein
same,Relative concentration of PC 40:5,Huh-7 cells [1],1.883 µmol/mg protein
same,Relative concentration of PC 40:6,Huh-7 cells [1],2.981 µmol/mg protein
same,Relative concentration of PC 42:4e,Huh-7 cells [1],0.056 µmol/mg protein
same,Relative concentration of PC 42:5e,Huh-7 cells [1],0.118 µmol/mg protein
same,Relative concentration of PE 32:0,Huh-7 cells [1],0.231 µmol/mg protein
same,Relative concentration of PE 36:4,Huh-7 cells [1],15.311 µmol/mg protein
same,Relative concentration of PE 36:5e,Huh-7 cells [1],1.339 µmol/mg protein
same,Relative concentration of PE 38:5e,Huh-7 cells [1],0.649 µmol/mg protein
same,Relative concentration of SM 32:0,Huh-7 cells [1],0.350 µmol/mg protein
same,Relative concentration of SM 32:1,Huh-7 cells [1],2.087 µmol/mg protein
same,Relative concentration of SM 32:2,Huh-7 cells [1],0.032 µmol/mg protein
same,Relative concentration of SM 33:1,Huh-7 cells [1],1.877 µmol/mg protein
same,Relative concentration of SM 34:1,Huh-7 cells [1],22.397 µmol/mg protein
same,Relative concentration of SM 34:2,Huh-7 cells [1],1.973 µmol/mg protein
same,Relative concentration of SM 35:0,Huh-7 cells [1],1.702 µmol/mg protein
same,Relative concentration of SM 35:1,Huh-7 cells [1],0.803 µmol/mg protein
same,Relative concentration of SM 36:0,Huh-7 cells [1],0.297 µmol/mg protein
same,Relative concentration of SM 36:1,Huh-7 cells [1],1.764 µmol/mg protein
same,Relative concentration of SM 36:2,Huh-7 cells [1],0.702 µmol/mg protein
same,Relative concentration of SM 38:1,Huh-7 cells [1],0.595 µmol/mg protein
same,Relative concentration of SM 38:2,Huh-7 cells [1],0.151 µmol/mg protein
same,Relative concentration of SM 39:1,Huh-7 cells [1],0.210 µmol/mg protein
same,Relative concentration of SM 40:0,Huh-7 cells [1],0.286 µmol/mg protein
same,Relative concentration of SM 40:1,Huh-7 cells [1],1.575 µmol/mg protein
same,Relative concentration of SM 40:2,Huh-7 cells [1],0.891 µmol/mg protein
same,Relative concentration of SM 41:1,Huh-7 cells [1],0.637 µmol/mg protein
same,Relative concentration of SM 41:2,Huh-7 cells [1],0.065 µmol/mg protein
same,Relative concentration of SM 42:1,Huh-7 cells [1],2.064 µmol/mg protein
same,Relative concentration of SM 42:2,Huh-7 cells [1],3.149 µmol/mg protein
same,Relative concentration of SM 42:3,Huh-7 cells [1],0.805 µmol/mg protein
same,Relative concentration of SM 43:1,Huh-7 cells [1],0.128 µmol/mg protein
same,Relative concentration of SM 43:2,Huh-7 cells [1],0.358 µmol/mg protein
same,Relative concentration of TG 46:0,Huh-7 cells [1],1.549 µmol/mg protein
same,Relative concentration of TG 46:1,Huh-7 cells [1],2.111 µmol/mg protein
same,Relative concentration of TG 46:2,Huh-7 cells [1],1.025 µmol/mg protein
same,Relative concentration of TG 48:0,Huh-7 cells [1],2.372 µmol/mg protein
same,Relative concentration of TG 48:1,Huh-7 cells [1],5.318 µmol/mg protein
same,Relative concentration of TG 48:2,Huh-7 cells [1],4.451 µmol/mg protein
same,Relative concentration of TG 48:3,Huh-7 cells [1],1.146 µmol/mg protein
same,Relative concentration of TG 50:0,Huh-7 cells [1],1.142 µmol/mg protein
same,Relative concentration of TG 50:1,Huh-7 cells [1],9.399 µmol/mg protein
same,Relative concentration of TG 50:2,Huh-7 cells [1],11.302 µmol/mg protein
same,Relative concentration of TG 50:3,Huh-7 cells [1],4.462 µmol/mg protein
same,Relative concentration of TG 50:4,Huh-7 cells [1],1.054 µmol/mg protein
same,Relative concentration of TG 51:2,Huh-7 cells [1],2.969 µmol/mg protein
same,Relative concentration of TG 52:1,Huh-7 cells [1],3.455 µmol/mg protein
same,Relative concentration of TG 52:2,Huh-7 cells [1],16.188 µmol/mg protein
same,Relative concentration of TG 52:3,Huh-7 cells [1],12.354 µmol/mg protein
same,Relative concentration of TG 52:4,Huh-7 cells [1],3.787 µmol/mg protein
same,Relative concentration of TG 52:5,Huh-7 cells [1],1.312 µmol/mg protein
same,Relative concentration of TG 52:6,Huh-7 cells [1],0.708 µmol/mg protein
same,Relative concentration of TG 54:2,Huh-7 cells [1],3.515 µmol/mg protein
same,Relative concentration of TG 54:3,Huh-7 cells [1],11.096 µmol/mg protein
same,Relative concentration of TG 54:4,Huh-7 cells [1],6.556 µmol/mg protein
same,Relative concentration of TG 54:5,Huh-7 cells [1],4.411 µmol/mg protein
same,IC50,[2],0.9 ± 0.2 µM
same,IC50,[3],0.003 ± 0.0002 µM
same,IC50,Huh-7 cells [4],22 ± 5 µM
same,IC50,[5],19 ± 5 µM
